Data as given in patent US11548871B2, “Triazole carbamate pyridyl sulfonamides as LPA receptor antagonists and uses thereof” (Gilead Sciences, Inc., priority 2019, dated 2023).

Molecular target: human LPAR1 (Homo sapiens, UniProt Q92633)
Experiment: LPAR1 intracellular calcium mobilization assay (antagonist mode)
Protocol: In vitro LPAR1 activity was measured in an intracellular calcium mobilization assay.
Prior to testing cell media were aspirated from the cells and replaced with 20 μL Calcium Dye Loading Buffer (DiscoverX Calcium NoWash^PLUS Assay Kit cat #90-0091) and 2.5 mM Probenecid (Sigma Aldrich cat #P8761, prepared fresh) in HBSS/20 mM Hepes for 60 min at 37° C.
For agonist dose curves, cells were removed from the incubator after dye loading and 10 μL HBSS/20 mM Hepes including 3× vehicle was added. Cells were incubated for 30 min at room temperature in the dark to equilibrate plate temperatures. An intermediate LPA dilution series was prepared in assay buffer to generate 4× stock. Calcium mobilization was monitored on a FLIPR Tetra (MDS, San Jose, Calif.) for 2 min and 10 μL 4×LPA in HBSS/20 mM Hepes was added to the cells 5 s into the assay.
An intermediate antagonist dilution series was prepared as 3× samples in assay buffer. After dye loading, cells were removed from the incubator and 10 μL 3× antagonist was added. Cells were incubated for 30 min at room temperature in the dark to equilibrate plate temperatures. The final vehicle (DMSO) concentration was 1%. Compound antagonist activities was measured on a FLIPR Tetra. Calcium mobilization was monitored for 2 min and 10 μL EC80 agonist in HBSS/20 mM Hepes was added to the cells 5 s into the assay. Compound activity was analyzed using CBIS data analysis suite (ChemInnovation Software, San Diego, Calif.).

Sequence of human LPAR1 (Q92633 whole entry): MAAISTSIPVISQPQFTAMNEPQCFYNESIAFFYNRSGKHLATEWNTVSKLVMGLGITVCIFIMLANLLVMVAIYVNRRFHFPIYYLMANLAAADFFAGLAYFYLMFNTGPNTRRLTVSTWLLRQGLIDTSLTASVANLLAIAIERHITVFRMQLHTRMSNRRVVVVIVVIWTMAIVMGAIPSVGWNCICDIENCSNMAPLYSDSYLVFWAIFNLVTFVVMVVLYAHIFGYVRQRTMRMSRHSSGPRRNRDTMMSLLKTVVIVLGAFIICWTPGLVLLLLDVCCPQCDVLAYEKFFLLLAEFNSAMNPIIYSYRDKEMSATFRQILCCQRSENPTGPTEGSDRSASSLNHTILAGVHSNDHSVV

Row | SMILES | EC50 [µM]
1 | Cc1nc(-c2nnn(C)c2NC(=O)O[C@@H](c2ccccc2)C(F)(F)F)ccc1NS(C)(=O)=O [Compound 94, (S)-2,2,2-trifluoro-1-phenylethyl(1-methyl-4-(6-methyl-5-(methylsulfonamido)pyridin-2-yl)-1H-1,2,3-triazol-5-yl)carbamate] | 0.0386
2 | Cc1nc(-c2nnn(C)c2NC(=O)OC(C)c2cncc(Cl)c2)ccc1NS(C)(=O)=O (centres unmarked) [Compound 83, 1-(5-chloropyridin-3-yl)ethyl (1-methyl-4-(6-methyl-5-(methylsulfonamido)pyridin-2-yl)-1H-1,2,3-triazol-5-yl)carbamate] | 0.623
3 | Cc1nc(-c2nnn(C)c2NC(=O)OCc2cccc(Cl)c2)ccc1NS(C)(=O)=O [Compound 39, 3-chlorobenzyl (1-methyl-4-(6-methyl-5-(methylsulfonamido)pyridin-2-yl)-1H-1,2,3-triazol-5-yl)carbamate] | 0.0895
4 | C[C@@H](OC(=O)Nc1c(-c2ncc(NS(C)(=O)=O)cc2F)nnn1C)c1cccc(F)c1 [Compound 88, (R)-1-(3-fluorophenyl)ethyl(4-(3-fluoro-5-(methylsulfonamido)pyridin-2-yl)-1-methyl-1H-1,2,3-triazol-5-yl)carbamate] | 0.256
5 | C[C@@H](OC(=O)Nc1c(-c2ccc(NS(C)(=O)=O)cn2)nnn1C)c1ccccc1Cl [Compound 10, (R)-1-(2-chlorophenyl)ethyl (1-methyl-4-(5-(methylsulfonamido)pyridin-2-yl)-1H-1,2,3-triazol-5-yl)carbamate] | 0.0374
6 | Cn1nnc(-c2ccc(NS(C)(=O)=O)cn2)c1NC(=O)OCc1cccc(Cl)c1 [Compound 20, 3-chlorobenzyl (1-methyl-4-(5-(methylsulfonamido)pyridin-2-yl)-1H-1,2,3-triazol-5-yl)carbamate] | 0.117
7 | Cc1nc(-c2nnn(C)c2NC(=O)O[C@H](C)c2cc(F)cc(F)c2)ccc1NS(C)(=O)=O [Compound 53, (R)-1-(3,5-difluorophenyl)ethyl (1-methyl-4-(6-methyl-5-(methylsulfonamido)pyridin-2-yl)-1H-1,2,3-triazol-5-yl)carbamate] | 0.17
8 | Cc1nc(-c2nnn(C)c2NC(=O)O[C@H](C)CC(C)C)ccc1NS(C)(=O)=O [Compound 72, (R)-4-methylpentan-2-yl (1-methyl-4-(6-methyl-5-(methylsulfonamido)pyridin-2-yl)-1H-1,2,3-triazol-5-yl)carbamate] | 0.115
9 | Cc1nc(-c2nnn(C)c2NC(=O)N[C@@H](c2ccccc2)C(F)(F)F)ccc1NS(C)(=O)=O [Compound 66, (S)-N-(2-methyl-6-(1-methyl-5-(3-(2,2,2-trifluoro-1-phenylethyl)ureido)-1H-1,2,3-triazol-4-yl)pyridin-3-yl)methanesulfonamide] | 0.54
10 | Cc1nc(-c2nnn(C)c2NC(=O)O[C@H](CF)c2cccc(Cl)c2)ccc1NS(C)(=O)=O [Compound 25, (S)-1-(3-chlorophenyl)-2-fluoroethyl (1-methyl-4-(6-methyl-5-(methylsulfonamido)pyridin-2-yl)-1H-1,2,3-triazol-5-yl)carbamate] | 0.0187
11 | Cc1nc(-c2nnn(C)c2NC(=O)O[C@@H](c2cccc(F)c2)C(F)F)ccc1NS(C)(=O)=O [Compound 58, (S)-2,2-difluoro-1-(3-fluorophenyl)ethyl (1-methyl-4-(6-methyl-5-(methylsulfonamido)pyridin-2-yl)-1H-1,2,3-triazol-5-yl)carbamate] | 0.0439
12 | Cn1nnc(-c2ccc(NS(C)(=O)=O)c(F)n2)c1NC(=O)O[C@@H](c1ccccc1)C(F)F [Compound 6, (S)-2,2-difluoro-1-phenylethyl (4-(6-fluoro-5-(methylsulfonamido)pyridin-2-yl)-1-methyl-1H-1,2,3-triazol-5-yl)carbamate] | 0.0713
13 | Cc1nc(-c2nnn(C)c2NC(=O)OC(C)c2cccnc2C)ccc1NS(C)(=O)=O (centres unmarked) [Compound 81, 1-(2-methylpyridin-3-yl)ethyl (1-methyl-4-(6-methyl-5-(methylsulfonamido)pyridin-2-yl)-1H-1,2,3-triazol-5-yl)carbamate] | 0.876

Other lines, results leading:

Row | EC50 [µM] | SMILES
14 | 0.374 | CCn1nnc(-c2ccc(NS(C)(=O)=O)c(C)n2)c1NC(=O)O[C@H](C)c1cccnc1Cl [Compound 157, (R)-1-(2-chloropyridin-3-yl)ethyl (1-ethyl-4-(6-methyl-5-(methylsulfonamido)pyridin-2-yl)-1H-1,2,3-triazol-5-yl)carbamate]
15 | 0.58 | COc1nc(-c2nnn(C)c2NC(=O)O[C@H](C)c2cccnc2Cl)ccc1NS(C)(=O)=O [Compound 146, (R)-1-(2-chloropyridin-3-yl)ethyl (4-(6-methoxy-5-(methylsulfonamido)pyridin-2-yl)-1-methyl-1H-1,2,3-triazol-5-yl)carbamate]
16 | 5.25 | C[C@@H](OC(=O)Nc1c(-c2ccc(NS(=O)(=O)C3CNC3)cn2)nnn1C)c1cccnc1Cl [Compound 161, (R)-1-(2-chloropyridin-3-yl)ethyl (4-(5-(azetidine-3-sulfonamido)pyridin-2-yl)-1-methyl-1H-1,2,3-triazol-5-yl)carbamate]
17 | 0.92 | COc1ncccc1[C@@H](C)OC(=O)Nc1c(-c2ccc(NS(C)(=O)=O)c(C)n2)nnn1C [Compound 122, (R)-1-(2-methoxypyridin-3-yl)ethyl (1-methyl-4-(6-methyl-5-(methylsulfonamido)pyridin-2-yl)-1H-1,2,3-triazol-5-yl)carbamate]
18 | 1.08 | Cc1nc(-c2nnn(C)c2NC(=O)OC(C)c2cccnc2C(F)F)ccc1NS(C)(=O)=O (centres unmarked) [Compound 124, 1-(2-(difluoromethyl)pyridin-3-yl)ethyl (1-methyl-4-(6-methyl-5-(methylsulfonamido)pyridin-2-yl)-1H-1,2,3-triazol-5-yl)carbamate]
19 | 0.387 | Cc1nc(-c2nnn(C)c2NC(=O)O[C@@H](c2ccccc2F)C(F)(F)F)ccc1NS(C)(=O)=O [Compound 97, (S)-2,2,2-trifluoro-1-(2-fluorophenyl)ethyl(1-methyl-4-(6-methyl-5-(methylsulfonamido)pyridin-2-yl)-1H-1,2,3-triazol-5-yl)carbamate]
20 | 0.207 | C[C@@H](OC(=O)Nc1c(-c2ccc(NS(C)(=O)=O)c(F)n2)nnn1C)c1cccnc1Cl [Compound 153, (R)-1-(2-chloropyridin-3-yl)ethyl (4-(6-fluoro-5-(methylsulfonamido)pyridin-2-yl)-1-methyl-1H-1,2,3-triazol-5-yl)carbamate]
21 | 1.3 | Cc1nc(-c2nnn(C)c2NC(=O)O[C@H](C)c2cc(F)cnc2C#N)ccc1NS(C)(=O)=O [Compound 152, 1-(2-cyano-5-fluoropyridin-3-yl)ethyl (1-methyl-4-(6-methyl-5-(methylsulfonamido)pyridin-2-yl)-1H-1,2,3-triazol-5-yl)carbamate]
22 | 0.208 | CNS(=O)(=O)Nc1ccc(-c2nnn(C)c2NC(=O)O[C@H](C)c2cccnc2Cl)nc1C [Compound 163, (R)-1-(2-chloropyridin-3-yl)ethyl (1-methyl-4-(6-methyl-5-((N-methylsulfamoyl)amino)pyridin-2-yl)-1H-1,2,3-triazol-5-yl)carbamate]
23 | 0.723 | Cc1nc(-c2nnn(C)c2NC(=O)O[C@H](C)c2cccnc2C)ccc1NS(C)(=O)=O [Compound 141, (R)-1-(2-methylpyridin-3-yl)ethyl (1-methyl-4-(6-methyl-5-(methylsulfonamido)pyridin-2-yl)-1H-1,2,3-triazol-5-yl)carbamate]
24 | 0.129 | C[C@@H](OC(=O)Nc1c(-c2ccc(NS(C)(=O)=O)cn2)nnn1C)c1cccnc1Br [Compound 116, (R)-1-(2-bromopyridin-3-yl)ethyl (1-methyl-4-(5-(methylsulfonamido)pyridin-2-yl)-1H-1,2,3-triazol-5-yl)carbamate]
25 | 0.278 | Cc1nc(-c2nnn(C)c2NC(=O)O[C@H](C)c2cccc(F)c2)ccc1NS(=O)(=O)C(C)C [Compound 105, (R)-1-(3-fluoro-phenyl)ethyl(1-methyl-4-(6-methyl-5-((1-methylethyl)sulfonamido)pyridin-2-yl)-1H-1,2,3-triazol-5-yl)carbamate]
26 | 0.187 | Cc1nc(-c2nnn(C)c2NC(=O)O[C@H](C)c2cc(Br)cnc2F)ccc1NS(C)(=O)=O [Compound 125, (R)-1-(5-bromo-2-fluoropyridin-3-yl)ethyl (1-methyl-4-(6-methyl-5-(methylsulfonamido)pyridin-2-yl)-1H-1,2,3-triazol-5-yl)carbamate]
27 | 0.0578 | C[C@@H](OC(=O)Nc1c(-c2ccc(NS(C)(=O)=O)cn2)nnn1C)c1cnsc1Cl [Compound 118, (R)-1-(5-chloroisothiazol-4-yl)ethyl (1-methyl-4-(5-(methylsulfonamido)pyridin-2-yl)-1H-1,2,3-triazol-5-yl)carbamate]
28 | 10 | COC1CN(S(=O)(=O)Nc2ccc(-c3nnn(C)c3NC(=O)O[C@H](C)c3cccc(F)c3)nc2C)C1 [Compound 108, (R)-1-(3-fluoro-phenyl)ethyl (4-(5-((3-methoxy-azetidine)-1-sulfonamido)-6-methylpyridin-2-yl)-1-methyl-1H-1,2,3-triazol-5-yl)carbamate]
29 | 0.023 | Cc1nc(-c2nnn(C)c2NC(=O)O[C@H](C)c2cscc2Cl)ccc1NS(C)(=O)=O [Compound 138, (R)-1-(4-chlorothiophen-3-yl)ethyl (1-methyl-4-(6-methyl-5-(methylsulfonamido)pyridin-2-yl)-1H-1,2,3-triazol-5-yl)carbamate]
30 | 0.127 | CCc1nc(-c2nnn(C)c2NC(=O)O[C@H](C)c2cc(F)cnc2Cl)ccc1NS(C)(=O)=O [Compound 147, (R)-1-(2-chloro-5-fluoropyridin-3-yl)ethyl (4-(6-ethyl-5-(methylsulfonamido)pyridin-2-yl)-1-methyl-1H-1,2,3-triazol-5-yl)carbamate]
31 | 0.304 | C[C@@H](OC(=O)Nc1c(-c2ccc(NS(C)(=O)=O)c(C3CC3)n2)nnn1C)c1cccnc1Cl [Compound 149, (R)-1-(2-chloropyridin-3-yl)ethyl (4-(6-cyclopropyl-5-(methylsulfonamido)pyridin-2-yl)-1-methyl-1H-1,2,3-triazol-5-yl)carbamate]
32 | 0.083 | Cc1ncc(Cl)cc1[C@@H](C)OC(=O)Nc1c(-c2ccc(NS(C)(=O)=O)cn2)nnn1C [Compound 113, (R)-1-(5-chloro-2-methylpyridin-3-yl)ethyl (1-methyl-4-(5-(methylsulfonamido)pyridin-2-yl)-1H-1,2,3-triazol-5-yl)carbamate]
